Laboratory results taken from patent publication US20230192700A1, “PYRAZOLOPYRAZINES ACTING ON CANCERS VIA INHIBITION OF CDK12” (Bayer Aktiengesellschaft, priority 2020, published 2023).
Like-named read-outs stand apart in the source and are kept apart here.

Legend:
CDK12/CyclinK = target: T1, CDK12/CyclinK (Homo sapiens, UniProt Q9NYV4); assay: CDK12/CycK high ATP kinase assay (TR-FRET); assay type: biochemical; settings: 2 mM ATP (high ATP); median; read-out: CDK12/CyclinK, 2 mM ATP (high ATP), IC50 - [mol/l] (median)
T1 construct: His-CDK12 (aa Q696-S1082); made in house; host or cells: Hi-5 insect cells (baculovirus co-infection with CycK and yeast CAK1)
T1 sequence (Q9NYV4 with tags, fused parts or gaps): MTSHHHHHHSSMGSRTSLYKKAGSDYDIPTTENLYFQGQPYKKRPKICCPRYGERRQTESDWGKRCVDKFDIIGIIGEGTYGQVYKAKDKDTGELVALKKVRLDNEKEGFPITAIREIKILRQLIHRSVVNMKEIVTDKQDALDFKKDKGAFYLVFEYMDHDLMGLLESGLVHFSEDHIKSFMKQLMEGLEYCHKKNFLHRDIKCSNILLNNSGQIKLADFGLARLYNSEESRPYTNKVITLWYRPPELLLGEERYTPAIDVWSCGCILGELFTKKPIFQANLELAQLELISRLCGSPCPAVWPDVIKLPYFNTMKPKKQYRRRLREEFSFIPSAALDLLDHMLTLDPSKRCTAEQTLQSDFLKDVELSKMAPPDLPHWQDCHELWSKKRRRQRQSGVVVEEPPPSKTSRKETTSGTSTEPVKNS
T1 sequence (O75909 with tags, fused parts or gaps partner limits assumed): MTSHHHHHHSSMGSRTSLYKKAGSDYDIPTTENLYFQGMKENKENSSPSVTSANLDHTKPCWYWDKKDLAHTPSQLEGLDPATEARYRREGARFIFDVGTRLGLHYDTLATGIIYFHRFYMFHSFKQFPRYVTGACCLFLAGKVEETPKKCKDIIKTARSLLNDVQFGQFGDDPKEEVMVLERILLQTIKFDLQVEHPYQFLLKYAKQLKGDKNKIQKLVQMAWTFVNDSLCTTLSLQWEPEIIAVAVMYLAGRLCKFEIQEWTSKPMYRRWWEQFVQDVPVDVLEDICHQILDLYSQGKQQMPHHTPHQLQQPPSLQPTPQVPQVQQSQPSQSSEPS
In short: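 Human His-tagged CDK12/CycK (about 0.75 nM) preincubated with compound 15 min, then reacted 60 min at 22 °C with 2 mM ATP and 1 µM biotinylated peptide in HEPES pH 7.5 buffer. Phospho-Ser62 c-Myc epitope detected by TR-FRET (665/620 nm ratio); data normalised to no-inhibitor and no-enzyme controls.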

[1] = system: MDA-MB-231 human breast cancer cells; assay: Proliferation assay MDA-MB-231 (crystal violet); assay type: cell-based; settings: MDA-MB-231 cells, 4 days, median, read-out: Prolif-MDA MB231 IC50 - [mol/l] (median)
Description: 4. Proliferation assay: MDA-MB-231, CAL-120
Human tumour cells were originally obtained from the American Type Culture Collection (ATCC), or from the Deutsche Sammlung von Mikroorganismen and Zellkulturen (DSMZ, German Collection of Microorganisms and Cell Cultures). Cultivated tumour cells (CAL-120, human breast adenocarcinoma cells, DSMZ ACC-459; MDA-M B-231, human breast cancer cells, ATCC HTB-26) were plated at a density of 4,000 cells/well in a 96-well multititer plate in 200 microL of their respective growth medium supplemented 10% fetal calf serum. After 24 hours, the cells of one plate (zero-point plate) were stained with crystal violet (see below), while the medium of the other plates was supplemented with the test substances in various concentrations (0 micromol/L, as well as in the range of 0.01-10 micromol/L; the final concentration of the solvent dimethyl sulfoxide was adjusted to 0.1%) using a Tecan HP D300 Digital Dispenser. The cells were incubated for 4 days in the presence of test substances. Cell proliferation was determined by staining the cells with crystal violet: the cells were fixed by adding 20 microL/measuring point of an 11% glutaric aldehyde solution for 15 minutes at room temperature. After three washing cycles of the fixed cells with water, the plates were dried at room temperature. The cells were stained by adding 100 microL/measuring point of a 0.1% crystal violet solution (pH 3.0). After three washing cycles of the stained cells with water, the plates were dried at room temperature. The dye was dissolved by adding 100 microL/measuring point of a 10% acetic acid solution. The extinction was determined by photometry at a wavelength of 595 nm. The change of cell number, in percent, was calculated by normalization of the measured values to the extinction values of the zero-point plate(=0%) and the extinction of the untreated (0 μM) cells(=100%). The IC50 values (inhibitory concentration at 50% of maximal effect) were determined by means of a 4 parameter fit.

IC50 (CDK12/CyclinK) [nM] | IC50 ([1]; Homo sapiens, MDA-MB-231, 96 h) [nM] | IC50 [1] [nM] | Compound
12800 | 50.8 | – | OC[C@H]1C[C@@H](n2nc(NCc3nc4ccccc4[nH]3)c3ncc(C4CC4)nc32)C1 [Example 47, [cis-3-(3-{[(1H-benzimidazol-2-yl)methyl]amino}-6-cyclopropyl-1H-pyrazolo[3,4-b]pyrazin-1-yl)cyclobutyl]methanol]
> 20000 | 14.5 | – | CN1CCC(n2nc(NCc3nc4cc(Cl)c(F)cc4[nH]3)c3ncc(C4CC4)nc32)CC1 [Example 29, N-[(5-chloro-6-fluoro-1H-benzimidazol-2-yl)methyl]-6-cyclopropyl-1-(1-methylpiperidin-4-yl)-1H-pyrazolo[3,4-b]pyrazin-3-amine]
> 20000 | – | 46.5 | CN1CCCC(n2nc(NCc3nc4ccccc4[nH]3)c3ncc(C4CC4)nc32)CC1 (single isomer, unassigned) [Example 38, (−) or (+)-N-[(1H-benzimidazol-2-yl)methyl]-6-cyclopropyl-1-[(4R*)-1-methylazepan-4-yl]-1H-pyrazolo[3,4-b]pyrazin-3-amine]
> 20000 | – | 213 | COCCC(C)n1nc(NCc2nc3ccccc3[nH]2)c2ncc(C3CC3)nc21 (single isomer, unassigned; (-)) [Example 58, (−)-N-[(1H-benzimidazol-2-yl)methyl]-6-cyclopropyl-1-[4-methoxybutan-2-yl]-1H-pyrazolo[3,4-b]pyrazin-3-amine]
> 20000 | – | 151 | c1ccc2[nH]c(CNc3nn(C4CCOC4)c4nc(C5CC5)cnc34)nc2c1 (single isomer, unassigned) [Example 18, (-) or (+) -N-[(1H-benzimidazol-2-yl)methyl]-6-cyclopropyl-1-[oxolan-3-yl]-1H-pyrazolo[3,4-b]pyrazin-3-amine]
> 20000 | 114 | – | FC1(F)CCC(n2nc(NCc3nc4ccccc4[nH]3)c3ncc(C4CC4)nc32)CC1 [Example 36, N-[(1H-benzimidazol-2-yl)methyl]-6-cyclopropyl-1-(4,4-difluorocyclohexyl)-1H-pyrazolo[3,4-b]pyrazin-3-amine]
> 20000 | 67.1 | – | CC1CC(n2nc(NCc3nc4ccccc4[nH]3)c3ncc(C4CC4)nc32)CCN1C (racemic) [Example 41, (±)-cis/trans-N-[(1H-benzimidazol-2-yl)methyl]-6-cyclopropyl-1-(1,2-dimethylpiperidin-4-yl)-1H-pyrazolo[3,4-b]pyrazin-3-amine]
> 20000 | 70.8 | – | O[C@H]1C[C@@H](Cn2nc(NCc3nc4ccccc4[nH]3)c3ncc(C4CC4)nc32)C1 [Example 71, cis-3-[(3-{[(1H-benzimidazol-2-yl)methyl]amino}-6-cyclopropyl-1H-pyrazolo[3,4-b]pyrazin-1-yl)methyl]cyclobutan-1-ol]
> 10000 | 141 | – | OC1(Cn2nc(NCc3nc4ccccc4[nH]3)c3ncc(C4CC4)nc32)CCCC1 [Example 73, 1-[(3-{[(1H-benzimidazol-2-yl)methyl]amino}-6-cyclopropyl-1H-pyrazolo[3,4-b]pyrazin-1-yl)methyl]cyclopentan-1-ol]
> 20000 | 315 | – | c1ccc2[nH]c(CNc3nn(C4CCCC4)c4nc(C5CC5)cnc34)nc2c1 [Example 39, N-[(1H-benzimidazol-2-yl)methyl]-1-cyclopentyl-6-cyclopropyl-1H-pyrazolo[3,4-b]pyrazin-3-amine]
> 20000 | 14.4 | – | CN1CCC(n2nc(NCc3nc4c(Br)cccc4[nH]3)c3ncc(C4CC4)nc32)CC1 [Example 20, N-[(4-bromo-1H-benzimidazol-2-yl)methyl]-6-cyclopropyl-1-(1-methylpiperidin-4-yl)-1H-pyrazolo[3,4-b]pyrazin-3-amine]
12300 | 28.6 | – | Fc1cccc2[nH]c(CNc3nn(C4CCOCC4)c4nc(C5CC5)cnc34)nc12 [Example 23, 6-cyclopropyl-N-[(4-fluoro-1H-benzimidazol-2-yl)methyl]-1-(oxan-4-yl)-1H-pyrazolo[3,4-b]pyrazin-3-amine]
> 20000 | – | 816 | COCCC(C)n1nc(NCc2nc3ccccc3[nH]2)c2ncc(C3CC3)nc21 (single isomer, unassigned; (+)) [Example 59, (+)-N-[(1H-benzimidazol-2-yl)methyl]-6-cyclopropyl-1-[4-methoxybutan-2-yl]-1H-pyrazolo[3,4-b]pyrazin-3-amine]
> 20000 | 29.9 | – | CN1CCC(n2nc(NCc3nc4cc(F)c(F)cc4[nH]3)c3ncc(C4CC4)nc32)CC1 [Example 30, 6-cyclopropyl-N-[(5,6-difluoro-1H-benzimidazol-2-yl)methyl]-1-(1-methylpiperidin-4-yl)-1H-pyrazolo[3,4-b]pyrazin-3-amine]
> 20000 | 38.8 | – | CN1CCCC(n2nc(NCc3nc4ccccc4[nH]3)c3ncc(C4CC4)nc32)CC1 (racemic) [Example 34, (±)-N-[(1H-benzimidazol-2-yl)methyl]-6-cyclopropyl-1-(1-methylazepan-4-yl)-1H-pyrazolo[3,4-b]pyrazin-3-amine]
> 10000 | 251 | – | OCC1(Cn2nc(NCc3nc4ccccc4[nH]3)c3ncc(C4CC4)nc32)CCC1 [Example 74, {1-[(3-{[(1H-benzimidazol-2-yl)methyl]amino}-6-cyclopropyl-1H-pyrazolo[3,4-b]pyrazin-1-yl)methyl]cyclobutyl}methanol]
> 20000 | 137 | – | c1ccc2[nH]c(CNc3nn(C4CCOC4)c4nc(C5CC5)cnc34)nc2c1 (single isomer, unassigned) [Example 17, (+) or (−)-N-[(1H-benzimidazol-2-yl)methyl]-6-cyclopropyl-1-(oxolan-3-yl)-1H-pyrazolo[3,4-b]pyrazin-3-amine]
> 20000 | 39.6 | – | Cc1cccc2[nH]c(CNc3nn(C4CCN(C)CC4)c4nc(C5CC5)cnc34)nc12 [Example 8, 6-cyclopropyl-N-[(4-methyl-1H-benzimidazol-2-yl)methyl]-1-(1-methylpiperidin-4-yl)-1H-pyrazolo[3,4-b]pyrazin-3-amine]
> 20000 | 38.3 | – | c1ccc2[nH]c(CNc3nn(C4CCNCC4)c4nc(C5CC5)cnc34)nc2c1 [Example 12, N-[(1H-benzimidazol-2-yl)methyl]-6-cyclopropyl-1-(piperidin-4-yl)-1H-pyrazolo[3,4-b]pyrazin-3-amine]
> 20000 | 41.2 | – | CN1CCC(n2nc(NCc3nc4c(F)c(F)ccc4[nH]3)c3ncc(C4CC4)nc32)CC1 [Example 9, 6-cyclopropyl-N-[(4,5-difluoro-1H-benzimidazol-2-yl)methyl]-1-(1-methylpiperidin-4-yl)-1H-pyrazolo[3,4-b]pyrazin-3-amine]
> 20000 | 24.9 | – | CN1CCC(n2nc(NCc3nc4ccccc4[nH]3)c3ncc(C4CC4)nc32)CC1 [Example 1, N-[(1H-benzimidazol-2-yl)methyl]-6-cyclopropyl-1-(1-methylpiperidin-4-yl)-1H-pyrazolo[3,4-b]pyrazin-3-amine]
> 20000 | 70.2 | – | c1ccc2[nH]c(CNc3nn(C4CCOCC4)c4nc(C5CC5)cnc34)nc2c1 [Example 16, N-[(1H-benzimidazol-2-yl)methyl]-6-cyclopropyl-1-(oxan-4-yl)-1H-pyrazolo[3,4-b]pyrazin-3-amine]
> 20000 | 200 | – | c1ccc2[nH]c(CNc3nn(C4CCC4)c4nc(C5CC5)cnc34)nc2c1 [Example 49, N-[(1H-benzimidazol-2-yl)methyl]-1-cyclobutyl-6-cyclopropyl-1H-pyrazolo[3,4-b]pyrazin-3-amine]
> 20000 | 645 | – | CN(C)CCn1nc(NCc2nc3ccccc3[nH]2)c2ncc(C3CC3)nc21 [Example 68, N-[(1H-benzimidazol-2-yl)methyl]-6-cyclopropyl-1-[2-(dimethylamino)ethyl]-1H-pyrazolo[3,4-b]pyrazin-3-amine]
> 20000 | 22.2 | – | Cc1c(F)ccc2[nH]c(CNc3nn(C4CCN(C)CC4)c4nc(C5CC5)cnc34)nc12 [Example 26, 6-cyclopropyl-N-[(5-fluoro-4-methyl-1H-benzimidazol-2-yl)methyl]-1-(1-methylpiperidin-4-yl)-1H-pyrazolo[3,4-b]pyrazin-3-amine]
